From patent US11441122B2, “Regulatory T cell epitopes” (EpiVax, Inc., priority 2017, dated 2022)
Several values for one entry are separate records, joined by “and”; a condition that tells them apart may be missing. Equal values may be shown once.

Key:
[1] = tested on: Class II HLA alleles; experiment: Soluble HLA competition binding assay, panel of five alleles (summary statements); design: species or system human
Procedure: HLA Binding Assay. Binding activity was analyzed at EpiVax (Providence, R.I.). The binding assay used (Steere A C et al., (2006), J Exp Med, 2003(4):961-71) yielded an indirect measure of peptide-MHC affinity. Soluble HLA molecules were loaded onto a 96-well plate with the unlabeled experimental Tregitopes and labeled control peptide. Once the binding mixture reached steady equilibrium (at 24 hours), the HLA-Tregitope complexes were captured on an ELISA plate coated with anti-human DR antibody and detected with a Europium-linked probe for the label (PerkinElmer, Waltham, Mass.). Time-resolved fluorescence measuring bound labeled control peptide is assessed by a SpectraMax® M5 unit (Spectramax, Radnor, Pa.). Binding of experimental Tregitopes was expressed as the percent inhibition of the labeled control peptide (experimental fluorescence/control fluorescence multiplied by 100).
The experimental Tregitopes were solvated in DMSO. The diluted Tregitopes were then mixed with binding reagents in aqueous buffering solution, yielding a range of final concentrations from 100,000 nM down to 100 nM. Tregitopes were then assayed against a panel of five common Class II HLA alleles: HLA-DRB1*0101, HLA-DRB1*0301, HLA-DRB1*0701, HLA-DRB1*1101, and HLA-DRB1*1501. […]

[2] = tested on: CD4+ effector memory T cells; type: cell-based, human
[3] = tested on: CD4+CD25+ FoxP3+ regulatory T cells; type: cell-based, human
[4] = tested on: T cells in PBMCs from lupus patients; conditions: cited from earlier work

## EKDIHSGLIGPLLI (listed as Homo sapiens) [SEQ ID NO: 6]
[1]
  HLA binding profile: highly-restricted HLA binding profiles

## FAVFDENKSWYLEDN (listed as Homo sapiens) [SEQ ID NO: 4]
[1]
  HLA binding profile: highly-restricted HLA binding profiles

## IHSIHFSGHVFTVRK (listed as Homo sapiens) [SEQ ID NO: 2]
[2]
  CD4+ T cell activation and proliferation of Teff responding to TT: inhibited both CD4+ T cell memory responses
  CD4+ T cell activation reduced by: 70% and 50%

## KIVFKNMASRPYSIY (listed as Homo sapiens) [SEQ ID NO: 3, Factor V derived peptide, used as negative control peptide]
[2]
  activated (CD25 high) proliferating (CFSE low) CD4 T cells stimulated by Tetanus Toxoid: no significant inhibitory effect
  activated effector CD4+ T cells (CD4+/CD25-high/FoxP3-intermediate) reacting to Tetanus Toxoid: no appreciable effect
  proliferation of CD4- cell population: little inhibitory effect
  proliferation of total CD4+ T cells (CFSE low): little to no effect
[3]
  relative proportion of highly proliferative regulatory T cells (CFSE low FoxP3+) among CD25+ Granzyme B+ CD4+ T cells: no significant effect

## RIHMVYSKRSGKPRGYAFIEY (listed as Homo sapiens) [peptide 131-151]
[4]
  randomly selected lupus patients whose PBMCs contain T cells that proliferate in response to the peptide: 40%
